Source: ChEMBL document CHEMBL4359811, “Development of Potent and Selective Pyrazolopyrimidine IRAK4 Inhibitors” (J Med Chem, 2019)
pIC50, pKi: −log10 of the molar value. ≈ marks a conversion by molar mass, not a printed value.

What was measured:
[1] = target: T1, Interleukin-1 receptor-associated kinase 4 (Homo sapiens, UniProt Q9NWZ3); assay: Inhibition of human recombinant full length His6-tagged IRAK4 expressed in baculovirus expression system using H-KKARFSRFAGSSPSQSSMVAR as substrate incubated for 90 mins by fluorescence polarisation assay
T1 sequence (Q9NWZ3 whole entry): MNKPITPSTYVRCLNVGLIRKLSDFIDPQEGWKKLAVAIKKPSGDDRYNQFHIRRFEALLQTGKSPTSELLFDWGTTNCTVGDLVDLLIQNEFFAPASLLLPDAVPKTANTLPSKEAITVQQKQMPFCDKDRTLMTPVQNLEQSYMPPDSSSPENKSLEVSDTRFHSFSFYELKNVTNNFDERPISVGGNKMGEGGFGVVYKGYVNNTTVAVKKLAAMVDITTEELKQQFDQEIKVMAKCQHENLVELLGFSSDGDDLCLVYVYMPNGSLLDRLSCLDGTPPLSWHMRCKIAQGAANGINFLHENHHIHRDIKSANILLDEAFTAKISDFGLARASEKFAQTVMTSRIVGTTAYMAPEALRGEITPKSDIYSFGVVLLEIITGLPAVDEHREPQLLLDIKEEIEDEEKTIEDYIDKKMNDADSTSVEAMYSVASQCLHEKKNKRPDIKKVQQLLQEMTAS

[2] = target: T1, Interleukin-1 receptor-associated kinase 4; assay: Inhibition of IRAK4 in human THP1-Xblue-MD2-CD14 cells assessed as reduction in LPS-induced NFkappaB transcription by measuring alkaline phosphatase level preincubated for 1 hr followed by LPS stimulation and measured after 20 hrs by quanti-blue reagent based reporter assay
[3] = Kinetic aqueous solubility of the compound in PBS buffer at pH 7.4 incubated for 24 hrs under shaking condition by LC-CLND assay; type: physicochemical; conditions: PBS buffer, pH 7.4; read-out: Kinetic_solubility
[4] = Apparent permeability from apical to basolateral side in MDCK cells at 10 uM incubated for 180 mins and measured up to 180 min by LC-MS/MS analysis; type: ADME, cell-based, Canis lupus familiaris; conditions: dog
[5] = target: Interleukin-1 receptor-associated kinase 1 (Homo sapiens, UniProt P51617); assay: Inhibition of human recombinant full length N-terminal His6-tagged IRAK1 (Argl94 to Ser712 residues) expressed in insect cells using H-KKARFSRFAGSSPSQSSMVAR as substrate incubated for 60 mins by fluorescence polarisation assay
Homo sapiens = species: Homo sapiens; assay: Selectivity ratio, ratio of Ki for human recombinant full length N-terminal His6-tagged IRAK1 (Argl94 to Ser712 residues) expressed in insect cells to Ki for human recombinant full length His6-tagged IRAK4 expressed in baculovirus expression system
[6] = Cytotoxicity against human THP1-Xblue-MD2-CD14 cells assessed as reduction in cell viability up to 20 uM preincubated for 1 hr followed by LPS stimulation and measured after 20 hrs; type: cell-based
[7] = Lipophilicity, log D of the compound; type: physicochemical; conditions: octanol/water
[8] = target: T1, Interleukin-1 receptor-associated kinase 4; assay: Inhibition of recombinant IRAK4 (unknown origin) using KKARFSRFAGSSPSQSSMVAR as substrate in presence of [gamma33P]-ATP by liquid scintillation counting method
[9] = Protein binding in human plasma at 5 uM incubated for 4 hrs by LC-MS/MS analysis; type: ADME, cell-free; conditions: read-out: PPB (converted)
[10] = Cmax in mouse at 5 mg/kg, po; type: ADME, organism-based; set-up: dose 5 mg/kg, route oral; conditions: in vivo, BLD = below limit of detection
[11] = Volume of distribution at steady state in mouse at 1 mg/kg, iv; type: ADME, organism-based; conditions: in vivo, read-out: Vdss
[12] = Blood clearance in mouse at 1 mg/kg, iv; type: ADME, organism-based; conditions: whole blood
[13] = Protein binding in mouse plasma at 5 uM incubated for 4 hrs by LC-MS/MS analysis; type: ADME, cell-free; conditions: read-out: PPB (converted)
[14] = AUC (infinity) in mouse at 5 mg/kg, po; type: ADME, organism-based; set-up: dose 5 mg/kg, route oral, time infinity; conditions: in vivo, BLD = below limit of detection
[15] = Oral bioavailability in mouse at 5 mg/kg; type: ADME, organism-based; conditions: in vivo, BLD = below limit of detection

Chain of Interleukin-1 receptor-associated kinase 1 (P51617 whole entry): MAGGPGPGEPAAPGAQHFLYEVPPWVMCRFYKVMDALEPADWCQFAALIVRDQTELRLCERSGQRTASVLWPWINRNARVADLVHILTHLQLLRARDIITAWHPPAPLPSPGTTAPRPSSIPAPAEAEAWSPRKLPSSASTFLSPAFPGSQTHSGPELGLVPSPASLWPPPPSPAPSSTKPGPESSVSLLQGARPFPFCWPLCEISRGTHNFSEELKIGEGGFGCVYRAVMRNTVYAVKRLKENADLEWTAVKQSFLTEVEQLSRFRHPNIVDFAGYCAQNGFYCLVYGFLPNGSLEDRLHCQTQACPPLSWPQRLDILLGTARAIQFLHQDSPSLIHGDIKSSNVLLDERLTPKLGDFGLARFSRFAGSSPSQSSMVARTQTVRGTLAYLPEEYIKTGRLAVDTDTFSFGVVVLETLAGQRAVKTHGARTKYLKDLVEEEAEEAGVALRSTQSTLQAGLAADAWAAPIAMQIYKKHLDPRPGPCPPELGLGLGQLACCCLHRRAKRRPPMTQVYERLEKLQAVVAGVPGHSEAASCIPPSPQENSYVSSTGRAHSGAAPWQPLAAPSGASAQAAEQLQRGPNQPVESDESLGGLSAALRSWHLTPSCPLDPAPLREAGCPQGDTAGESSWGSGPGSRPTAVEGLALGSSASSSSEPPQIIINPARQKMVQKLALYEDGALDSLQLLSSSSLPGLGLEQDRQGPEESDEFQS

Row | Compound | pKi [1] | pIC50 [2] | solubility kinetic at 24 h [3] [µM] | Papp A→B at 3 h, 10 µM [4] [×10⁻⁶ cm/s] | pKi [5] | other results
1 | CNC(=O)CN1CCN(c2cc3c(cc2NC(=O)c2cnn4cccnc24)CC(C)(C)O3)CC1 | 8.46 | 7.22 | 23 (≈ 10.7 µg/mL) | 13 | – | –
2 | O=C(Nc1cc2ccc(N3CCOCC3)nc2cc1N1CCCCC1)c1cnn2cccnc12 | 6.54 | 5.89 | – | – | 5.33 | –
3 | COc1cc2ncccc2cc1NC(=O)c1cnn2cccnc12 | 7.28 | 6.43 | – | – | 5.55 | –
4 | COc1cc2cccnc2cc1NC(=O)c1cnn2cccnc12 | – | – | – | – | – | pKi [8]: < 4.52
5 | COc1cc2cc[nH]c2cc1NC(=O)c1cnn2cccnc12 | – | – | – | – | – | pKi [8]: 6.10
6 | CC(C)(O)[C@]1(C)Cc2cc(NC(=O)c3cnn4cccnc34)c(N3CCOCC3)cc2O1 | 8.14 | 6.77 | 150 (≈ 65.6 µg/mL) | 21 | – | –
7 | CC1(C)Cc2cc(NC(=O)c3cnn4cc(O)cnc34)c(N3CCOCC3)cc2O1 | 8.49 | 6.48 | 3.1 (≈ 1.27 µg/mL) | 14 | – | –
8 | C[C@@]1(CO)Cc2cc(NC(=O)c3cnn4cccnc34)c(N3CCOCC3)cc2O1 | – | – | 10 (≈ 4.09 µg/mL) | 27 | – | –
9 | O=C(Nc1cc2[nH]cnc2cc1N1CCC(CO)CC1)c1cnn2cccnc12 | 8.17 | 6.48 | – | – | < 5.24 | –
10 | CC1(C)Cc2cc(NC(=O)c3cnn4cc(C(F)F)cnc34)c(N3CCOCC3)cc2O1 | 7.51 | 5.92 | 2.5 (≈ 1.11 µg/mL) | – | – | –
11 | CC1(C)Cc2cc(NC(=O)c3cnn4cc(OC(F)F)cnc34)c(N3CCOCC3)cc2O1 | 7.47 | < 4.70 | 1 (≈ 0.459 µg/mL) | 0.6 | – | –
12 | O=C(Nc1cc2[nH]c(N3CCOCC3)nc2cc1N1CCC(CO)CC1)c1cnn2cccnc12 | 8.77 | 6.60 | – | – | < 5.26 | –
13 | CC1(C)Cc2cc(NC(=O)c3cnn4cc(C5CC5)cnc34)c(N3CCOCC3)cc2O1 | – | < 4.70 | 1 (≈ 0.434 µg/mL) | – | – | –

The remaining compounds from weak to strong by pIC50 [2], led by results:

Row | pKi [1] | pIC50 [2] | solubility kinetic at 24 h [3] [µM] | Papp A→B at 3 h, 10 µM [4] [×10⁻⁶ cm/s] | pKi [5] | Compound | other results
14 | – | 6.89 | 25 (≈ 10.5 µg/mL) | – | – | CC1(C)Cc2cc(NC(=O)c3cnn4cccnc34)c(N3CCCC(O)CC3)cc2O1 (centres undefined) | –
15 | – | 7.01 | 120 (≈ 52.4 µg/mL) | 8.2 | – | CC1(C)Cc2cc(NC(=O)c3cnn4cccnc34)c(N3CCN(CCO)CC3)cc2O1 | –
16 | – | 7.18 | 15 (≈ 6.35 µg/mL) | 18 | – | CC1(C)Cc2cc(NC(=O)c3cnn4cc(CO)cnc34)c(N3CCOCC3)cc2O1 | –
17 | 8.92 | 7.22 | – | – | 6.47 | O=C(Nc1cc2oc(N3CCOCC3)nc2cc1N1CCC(CO)CC1)c1cnn2cccnc12 | –
18 | – | 7.25 | 1 (≈ 0.436 µg/mL) | 0.7 | – | CC1(C)Cc2cc(NC(=O)c3cnn4cc(C(N)=O)cnc34)c(N3CCOCC3)cc2O1 | –
19 | 8.77 | 7.46 | 1 (≈ 0.402 µg/mL) | – | 6.40 | O=C(Nc1cc2cccnc2cc1N1CCC(CO)CC1)c1cnn2cccnc12 | Ratio Ki (Homo sapiens): > 200; Activity [6]: Non-Toxic; logD [7]: 3.1
20 | 9.30 | 8.10 | – | 8.4 | 7.62 | O=C(Nc1cc2sc(N3CCOCC3)nc2cc1N1CCC(CO)CC1)c1cnn2cccnc12 | fraction unbound at 4 h, 5 µM [9]: 0.02; Cmax [10]: Bld; Vd [11]: 0.4 L/kg; clearance [12]: 18 mL/min/kg; fraction unbound at 4 h, 5 µM [13]: 0.01; AUC [14]: Bld; F [15]: Bld
